Measurements taken from US9174994B2, “Enhanced treatment regimens using mTor inhibitors” (INTELLIKINE LLC, priority 2011, dated 2015).

Test: Phase I clinical trial: treatment-emergent adverse events (patients, n (%)), dose limiting toxicity, MTD
Assay type: in vivo
[1] = Table 8: Total QDx5d QW (N = 6)
[2] = Table 8: Total QW Dosing (N = 15)

Protocol: Safety, maximum tolerated dose (MTD), pharmacokinetics (PK) and preliminary antitumor activity were evaluated.
Pharmacodynamic (PD) endpoints were evaluated in surrogate (peripheral blood cells [PBCs], skin) and tumor tissues for the phosphorylation of TORC1-dependent markers (4EBP1/S6), and TORC2-dependent markers (AKT/PRAS40).

Q: For `CC(C)n1nc(-c2ccc3oc(N)nc3c2)c2c(N)ncnc21` [compound A], which Weight decreased (Table 8: Total QDx3d QW (N = 14)) is on record?
A: 0 (0%)

Q: What about the Catheter site inflammation [1] of the same compound?
A: 0 (0%)

Q: And the Catheter site pain [1]?
A: 0 (0%)

Q: What about the Coagulopathy [1] of the same compound?
A: 0 (0%)

Q: And the Confusional state [1]?
A: 0 (0%)

Q: What about the Cough [1] of the same compound?
A: 0 (0%)

Q: What about the DIARRHEA [1] of the same compound?
A: 0 (0%)

Q: And the Dizziness [1]?
A: 0 (0%)

Q: And the Dyspnoea exertional [1]?
A: 0 (0%)

Q: What about the Eye infection [1] of the same compound?
A: 0 (0%)

Q: And the Fatigue [1]?
A: 0 (0%)

Q: What about the Gastritis [1] of the same compound?
A: 0 (0%)

Q: And the Gravitational oedema [1]?
A: 0 (0%)

Q: And the Headache [1]?
A: 0 (0%)

Q: And the Hyperbilirubinaemia [1]?
A: 0 (0%)

Q: And the Hypertransaminasaemia [1]?
A: 0 (0%)

Q: What about the Hypertriglyceridaemia [1] of the same compound?
A: 0 (0%)

Q: And the Hypocalcaemia [1]?
A: 0 (0%)

Q: And the Hypomagnesaemia [1]?
A: 0 (0%)

Q: And the Hypotension [1]?
A: 0 (0%)

Q: And the Insomnia [1]?
A: 0 (0%)

Q: And the Low fever [1]?
A: 0 (0%)

Q: And the Malaise [1]?
A: 0 (0%)

Q: And the Nausea [1]?
A: 1 (17%)

Q: What about the Oral discomfort [1] of the same compound?
A: 0 (0%)

Q: And the Orthostatic hypotension [1]?
A: 0 (0%)

Q: And the Palmar-plantar erythrodysaesthesia syndrome [1]?
A: 0 (0%)

Q: And the Panniculitis [1]?
A: 0 (0%)

Q: And the Platelet count decreased [1]?
A: 0 (0%)

Q: And the Polyuria [1]?
A: 0 (0%)

Q: What about the Pyrexia [1] of the same compound?
A: 0 (0%)

Q: And the Rash [1]?
A: 0 (0%)

Q: What about the Rash macular [1] of the same compound?
A: 0 (0%)

Q: And the Skin discolouration [1]?
A: 0 (0%)

Q: And the Skin exfoliation [1]?
A: 0 (0%)

Q: What about the Urinary tract infection [1] of the same compound?
A: 0 (0%)

Q: What about the Urine tract infection [1] of the same compound?
A: 1 (17%)

Q: And the Vomiting [1]?
A: 1 (17%)

Q: What about the WEAKNESS [1] of the same compound?
A: 0 (0%)

Q: What about the Weight decreased [1] of the same compound?
A: 0 (0%)

Q: And the Catheter site inflammation [2]?
A: 0 (0%)

Q: What about the Catheter site pain [2] of the same compound?
A: 0 (0%)

Q: What about the Coagulopathy [2] of the same compound?
A: 0 (0%)

Q: What about the Confusional state [2] of the same compound?
A: 0 (0%)

Q: And the Cough [2]?
A: 0 (0%)

Q: What about the DIARRHEA [2] of the same compound?
A: 1 (7%)

Q: What about the Dizziness [2] of the same compound?
A: 0 (0%)

Q: What about the Dyspnoea exertional [2] of the same compound?
A: 0 (0%)

Q: And the Eye infection [2]?
A: 0 (0%)

Q: What about the Fatigue [2] of the same compound?
A: 0 (0%)

Q: What about the Gastritis [2] of the same compound?
A: 0 (0%)

Q: What about the Gravitational oedema [2] of the same compound?
A: 0 (0%)

Q: And the Headache [2]?
A: 0 (0%)

Q: What about the Hyperbilirubinaemia [2] of the same compound?
A: 0 (0%)

Q: And the Hypertransaminasaemia [2]?
A: 0 (0%)

Q: And the Hypertriglyceridaemia [2]?
A: 0 (0%)

Q: What about the Hypocalcaemia [2] of the same compound?
A: 0 (0%)

Q: And the Hypomagnesaemia [2]?
A: 0 (0%)

Q: And the Hypotension [2]?
A: 0 (0%)

Q: And the Insomnia [2]?
A: 0 (0%)

Q: And the Low fever [2]?
A: 0 (0%)

Q: What about the Malaise [2] of the same compound?
A: 1 (7%)

Q: And the Nausea [2]?
A: 0 (0%)

Q: What about the Oral discomfort [2] of the same compound?
A: 1 (7%)

Q: What about the Orthostatic hypotension [2] of the same compound?
A: 0 (0%)

Q: And the Palmar-plantar erythrodysaesthesia syndrome [2]?
A: 0 (0%)

Q: And the Panniculitis [2]?
A: 0 (0%)

Q: What about the Platelet count decreased [2] of the same compound?
A: 0 (0%)

Q: And the Polyuria [2]?
A: 0 (0%)

Q: And the Pyrexia [2]?
A: 0 (0%)

Q: And the Rash [2]?
A: 1 (7%)

Q: What about the Rash macular [2] of the same compound?
A: 0 (0%)

Q: What about the Skin discolouration [2] of the same compound?
A: 0 (0%)

Q: What about the Skin exfoliation [2] of the same compound?
A: 0 (0%)

Q: And the Urinary tract infection [2]?
A: 0 (0%)

Q: And the Urine tract infection [2]?
A: 0 (0%)

Q: What about the Vomiting [2] of the same compound?
A: 0 (0%)

Q: What about the WEAKNESS [2] of the same compound?
A: 1 (7%)

Q: What about the Weight decreased [2] of the same compound?
A: 0 (0%)

Q: What about the “Grade 3 or greater TEAE: Abdominal pain upper” value (Total (N = 60)) of the same compound?
A: 1 (2%)

Q: What about the “Grade 3 or greater TEAE: Anaemia” value (Total (N = 60)) of the same compound?
A: 1 (2%)

Q: And the “Grade 3 or greater TEAE: Aspartate aminotransferase increased” value (Total (N = 60))?
A: 1 (2%)

Q: What about the “Grade 3 or greater TEAE: Asthenia” value (Total (N = 60)) of the same compound?
A: 1 (2%)

Q: What about the “Grade 3 or greater TEAE: Catheter related infection” value (Total (N = 60)) of the same compound?
A: 1 (2%)

Q: And the “Grade 3 or greater TEAE: Cellulitis” value (Total (N = 60))?
A: 1 (2%)

Q: What about the “Grade 3 or greater TEAE: Diarrhoea” value (Total (N = 60)) of the same compound?
A: 3 (5%)

Q: And the “Grade 3 or greater TEAE: Disease progression” value (Total (N = 60))?
A: 1 (2%)

Q: What about the “Grade 3 or greater TEAE: Enterocutaneous fistula” value (Total (N = 60)) of the same compound?
A: 1 (2%)

Q: What about the “Grade 3 or greater TEAE: Gamma-glutamyltransferase increased” value (Total (N = 60)) of the same compound?
A: 2 (3%)

Q: And the “Grade 3 or greater TEAE: Gastroenteritis” value (Total (N = 60))?
A: 1 (2%)

Q: And the “Grade 3 or greater TEAE: Hyperglycaemia” value (Total (N = 60))?
A: 5 (8%)

Q: And the “Grade 3 or greater TEAE: Hypokalaemia” value (Total (N = 60))?
A: 2 (3%)

Q: What about the “Grade 3 or greater TEAE: Hyponatraemia” value (Total (N = 60)) of the same compound?
A: 2 (3%)

Q: And the “Grade 3 or greater TEAE: Lymphopenia” value (Total (N = 60))?
A: 4 (7%)

Q: What about the “Grade 3 or greater TEAE: Pancreatitis acute” value (Total (N = 60)) of the same compound?
A: 1 (2%)

Q: And the “Grade 3 or greater TEAE: Pleural effusion” value (Total (N = 60))?
A: 1 (2%)

Q: What about the “Grade 3 or greater TEAE: Pruritus” value (Total (N = 60)) of the same compound?
A: 2 (3%)

Q: What about the “Grade 3 or greater TEAE: Rash” value (Total (N = 60)) of the same compound?
A: 7 (12%)

Q: And the “Grade 3 or greater TEAE: Rash macular” value (Total (N = 60))?
A: 1 (2%)

Q: What about the “Grade 3 or greater TEAE: Somnolence” value (Total (N = 60)) of the same compound?
A: 1 (2%)

Q: What about the “Grade 3 or greater TEAE: Thrombocytopenia” value (Total (N = 60)) of the same compound?
A: 2 (3%)

Q: What about the “Grade 3 or greater TEAE: Urinary tract infection” value (Total (N = 60)) of the same compound?
A: 1 (2%)

Q: And the “Patients Reporting at Least One Grade 3 or Greater TEAE” value (Total (N = 60))?
A: 25 (42%)

Q: What about the Anaemia (Total QD Dosing (N = 25)) of the same compound?
A: 2 (8%)

Q: What about the Asthenia (Total QD Dosing (N = 25)) of the same compound?
A: 6 (24%)

Q: And the Blood creatinine increased (Total QD Dosing (N = 25))?
A: 6 (24%)

Q: What about the Coagulopathy (Total QD Dosing (N = 25)) of the same compound?
A: 1 (4%)

Q: What about the Confusional state (Total QD Dosing (N = 25)) of the same compound?
A: 1 (4%)
